# According to paper PMC5444710, “Enhancement of radiosensitivity by the novel anticancer quinolone derivative vosaroxin in preclinical glioblastoma models” (Oncotarget, 2017):
# Columns and labels:
# [1] = tested on: BT12M patient-derived glioblastoma stem cell line; assay: Inhibition of proliferation (cell viability); format: cell-based; conditions: Homo sapiens
# Method: (§1) Thirteen human glioma cell lines (U251, U373, SNB19, U118, U138, U87MG, A172, LN229, LN19, SW1783, T98G, SF-268, and D54) were cultured at 37°C in 5% CO2 and were maintained in Dulbecco’s modified Eagle medium (DMEM) containing 10% (v/v) fetal bovine serum, 4 mM glutamine, 100 IU/mL penicillin, 100 μg/mL streptomycin, and 1% nonessential amino acid (Invitrogen Life Technologies, Inc., Rockville, MD, USA). To minimize the risk of working with misidentified and/or contaminated cell lines, the cells used in studies reported here were stocked at very low passages after initial receipt from the vendor to reduce the possibility of contaminated cell line stocks and used at < 20 subcultures. Periodically, DNA profiling by GenePrint® 10 System (Promega Corporation, Madison, WI, USA) was carried out to authenticate cell cultures. Luciferase-transfected U251 cells were kindly provided by Jari E. Heikkila, department of Biochemistry and Pharmacy, Abo Akademi University, Turku, Finland. […] These non-commercially available, patient-derived cells were analyzed using short tandem repeat profiles. The expression of MGMT, p53, and PTEN was detected in western blots with antibodies from Santa Cruz against MGMT (sc166528), wt p53 (sc-100), total p53 (sc-126), and PTEN (sc-7974).
# (§2) Cells were seeded at a density of 2 × 10^4 cells/mL in 24-well plates. […] At the conclusion of the treatment period, cells were trypsinized and resuspended in 1.0 mL of saline; viable cells were counted using the NucleoCounter™ NC-100 (Chemotec, Cydevang, Denmark). […] IC50 values were calculated using GraFit (Erithacus Software Limited, Staines, UK).
# [2] = tested on: CSCs-5 patient-derived glioblastoma stem cell line; assay: Inhibition of proliferation (cell viability); format: cell-based; conditions: Homo sapiens
# Method: as §1, §2
# [3] = tested on: CSCs-7 patient-derived glioblastoma stem cell line; assay: Inhibition of proliferation (cell viability); format: cell-based; conditions: Homo sapiens
# Method: as §1, §2
# A172 cells = assay: Clonogenic survival assay; format: cell-based, human
# Method: (§3) For clonogenic survival assays, exponentially growing cells (70% confluence) were cultured in regular media and treated with vosaroxin, at the appropriate concentrations, or vehicle (final dimethyl sulfoxide concentration of 0.1%) for 48 hours. Tumor cells were then irradiated at room temperature with increasing doses of radiation (0–6 Gy) using an x-ray linear accelerator (dose rate of 200 cGy/min). Nonirradiated controls were handled identically to the irradiated cells with the exception of the radiation exposure. […] […] Colonies containing more than 50 cells were counted. The plating efficiency was calculated as the number of colonies observed divided by the number of cells plated. The surviving fraction was calculated as the number of colonies formed in the treated dishes compared with the number formed in the control. The survival curves were analyzed using SPSS statistical software (Chicago, IL, USA) by means of a fit of the data by a weighted, stratified, linear regression, according to the linear-quadratic formula: S(D)/S(O) = exp-(αD + βD2). The cell survival enhancement ratio was calculated as the ratio of the mean inactivation dose under control conditions divided by the mean inactivation dose after treatment as previously described.
# T98G cells = assay: Clonogenic survival assay; format: cell-based, human
# Method: as §3
# U251 cells = assay: Clonogenic survival assay; format: cell-based, human
# Method: as §3
# U87MG cells = assay: Clonogenic survival assay; format: cell-based, human
# Method: as §3
# [4] = tested on: U87MG, U251, and T98G xenografts; assay: iNOS and arginase-1 expression in xenograft tissue extracts; format: in vivo, female CD1-nu/nu mice; conditions: tissue extracts from U87MG
# Method: After appropriate treatments, tumor cell cultures and tissues were harvested for analysis of cytokine expression. Cell pellets were washed with PBS and lysed with RIPA buffer. Cell lysates and conditioned media were assayed by ELISA to measure (i) active human caspase-3 (CBA045, Merck Chemicals Ltd., Nottingham, UK), (ii) beclin-1 (E98557Hu, USCN Life Sciences, Houston, TX, USA), and (iii) DNA damage (EpiQuik in situ DNA Damage Assay Kit, Epigentek, Farmingdale, NY, USA). Tumor extracts were analyzed for the presence of:
# • MMP-2 (KHC3081) • TNF-α (KHC3011, Life Technologies Italia, Monza, Italy) • CXCR4 (Cyto Glow CXCR4 [pSer339], cell-based ELISA, Assay Biotech, Sunnyvale, CA, USA) • Human Fas ligand (ELH-FASL, RayBiotech, Norcross, GA, USA) • IL-6 (orb50052) and survivin (orb50135) (Biorbyt) • TGF-β1 (Quantikine ELISA Kit, DB100B, R&D Systems, Minneapolis, MN, USA) • SDF-1α (Human CXCL12/SDF-1α Quantikine ELISA Kit, DSA00, R&D Systems) • Mouse IL-10 DuoSet ELISA DY417 (R&D Systems Minneapolis, MN, USA) • Mouse NOS2 / iNOS ELISA Kit (Sandwich ELISA) - LS-F12166 (LifeSpan Biosciences, Inc, Seattle, WA, USA) • Mouse ARG1 / Arginase-1 ELISA Kit (Sandwich ELISA) - LS-F10883 (LifeSpan Biosciences, Inc, Seattle, WA, USA)
# [5] = tested on: luciferase-transfected U251 cells; assay: Orthotopic intra-brain model (DFS, OS)
# [6] = concentration equal to IC20, analyzed at 21 days of culture
# [7] = irradiated 2, 4, 6 Gy 48 hours after drug exposure, calculated at a surviving fraction of 0.10
compound,measurement,setting,value
CN[C@H]1CN(c2ccc3c(=O)c(C(=O)O)cn(-c4nccs4)c3n2)C[C@@H]1OC [vosaroxin],IC50,[1],44.3 ± 5.5 nM
same,IC50,[2],85.4 ± 7.8 nM
same,IC50,[3],125 ± 15.4 nM
same,"surviving fraction, vosaroxin alone",A172 cells; [6],0.87 ± 0.18
same,dose enhancement factor,A172 cells; [7],1.24
same,"surviving fraction, vosaroxin alone",T98G cells; [6],0.84 ± 0.036
same,dose enhancement factor,T98G cells; [7],1.40
same,"surviving fraction, vosaroxin alone",U251 cells; [6],0.80 ± 0.064
same,dose enhancement factor,U251 cells; [7],1.33
same,"surviving fraction, vosaroxin alone",U87MG cells; [6],0.77 ± 0.18
same,dose enhancement factor,U87MG cells; [7],1.55
same,arginase-1 expression (M2 marker),[4],low expression
same,iNOS expression (M1 marker),[4],high expression
same,Disease-free Survival HR (95% CI),[5]; VSR vs TMZ + RT,1.2 (0.4–3.2)
same,Overall Survival HR (95% CI),[5]; VSR vs TMZ + RT,1.5 (0.5–3.0)
same,Disease-free Survival HR (95% CI),[5]; VSR vs VSR + RT,2.4 (1.1–8.8)
same,Overall Survival HR (95% CI),[5]; VSR vs VSR + RT,4.5 (2.2–22.5)
same,mean time of recurrence (DFS) ± SE,"[5]; orthotopic U251-luciferase, treated for 35 days starting 5 days after cell injection",70.5 ± 7.3 days
